The subject of one data set is guinea pig heart. The experiment in a line: Monophasic action potential of the guinea pig heart. It counts as in vivo. Conditions: IV doses up to 46 mg/kg (100 μmol/kg).
Another data set has as its system rats. The data set can be described thus: Cardiovascular effects in rats. The class given is in vivo, rat. Conditions: 46 mg/kg orally (100 μmol/kg), highest dose tested.
In a further data set the test system is female rats. The data set can be described thus: Rat female fertility and embryofetal development study. It counts as in vivo. As to the method:
In female rats the No Adverse Effect Dose Level for fetal minor abnormalities and variants was 1000 mg/kg/day.

In a further data set the test system is female rabbits. The data set can be described thus: Rabbit maternal toxicity and fetal observations. It counts as in vivo. The method, then:
In female rabbits, the no effect dose level for maternal toxicity was 25 mg/kg/day. The no adverse effect dose level for fetal observations was 50 mg/kg/day.

Data set [1] relates to LH, free and total testosterone. The experiment in a line: Phase 2a randomised double blind placebo controlled study in women with PCOS (interim data). The class given is in vivo, human. As to the method: The pharmacodynamics, safety and pharmacokinetics of a compound of the present invention, NK3RA, is being further evaluated in a randomized, double-blind, placebo-controlled of NK3RA when given in multiple doses to females with PCOS.
In this type of clinical trial three doses of 20 mg once daily, 20 mg twice daily and 40 mg twice daily of test compound are being compared to placebo, and studied in parallel group design. […] Exploratory analyses will focus on changes from baseline of LH, DHEA, FSH, oestrogen, progesterone, prolactin, thyroid stimulating hormone, Insulin-like Growth Factor 1 [IGF-1] (as surrogate for GH) and HbA1c on days 7 and 28, as well as the impact of treatment on patient reported outcomes and HRQoL as measured by change from baseline at day 28.
The study population includes women with PCOS aged 18-45. The study will enroll 14 PCOS subjects per dose cohort with a total of N=56 for the entire study (2 drop outs per group assumed to give 12 evaluable subjects per dose). Patients are being dosed in the study over a duration of 28 days.
The effect of NK3RA on testosterone and LH is being assessed. […] LH pulse amplitude and frequency are mathematically modelled parameters from raw LH assay data.
Hourly measurement of FSH and free and total testosterone was performed during these periods of intensive monitoring.
Interim data have been obtained from a total of 20 women with Polycystic Ovary Syndrome (PCOS) who received treatment (NK3RA or placebo) in the ongoing phase 2a study. This study is a 28 day, randomised, double blind placebo controlled study with 4 treatment arms, NK3RA 20 mg once daily, 20 mg twice daily, 40 mg twice daily and placebo in women with PCOS.
Tables 1 to 3 below summarise the number of patients with data supportive, consistent and not supportive by treatment group (placebo and NK3RA).
In Table 1 the criteria used to determine what is supportive, consistent or not supportive are based on a qualitative evaluation of the changes in:
(a) LH area under the curve (AUC) between 0 and 8 hours AUC(0-8)
(b) LH pulsatility parameters derived through deconvolution (Veldhuis J D, Keenan D M, and Pincus S M. Motivations and methods for analyzing pulsatile hormone secretion. Endocrine Reviews. 2008, 29(7):823-864; and Liu P Y, Keenan D M, Kok P, Padmanabhan V, O'Byrne K T, and Veldhuis J D. Sensitivity and specificity of pulse detection using a new deconvolution method. Am J Physiol Endocrinol Metab. 2009; 297(2):538-44) • i) average mass per LH pulse in 8 hours • ii) total number of LH pulses in 8 hours.
For LH, there is a relationship between the LH AUC(0-8) and LH pulsatility. In particular, reductions in LH AUC(0-8) that would be considered to be disease modifying in PCOS will manifest themselves in pulsatility parameters of average mass per LH pulse in 8 hours and/or total number of LH pulses in 8 hours. Mass per pulse (MPP) is defined the amount of LH released per reconstructed LH pulse. The LH AUC(0-8) can be more reliably measured compared to the pulsatility parameters and therefore why both AUC(0-8) and pulsatility are considered in interpreting the level of LH reduction.
In Table 2 the criteria used to determine what is supportive, consistent or not supportive are based on a qualitative evaluation of the changes in average (on an individual patient basis) free testosterone.
In Table 3 the criteria used to determine what is supportive, consistent or not supportive are based on a qualitative evaluation of the changes in average (on an individual patient basis) total testosterone.
Expert judgement was necessary in the application of these criteria and therefore plots were evaluated independently by 3 AZ physicians. The most common result across the 3 physicians determined provided the overall evaluation for a single patient. These criteria were agreed between the 3 reviewers ahead of the plots being available for review. […]

Where [2] appears, read: decrease vs baseline on both days 7 and 28.
[3] abbreviates: decrease vs baseline on either days 7 and 28.
The mark [4] stands for this setting: increase vs baseline on both days 7 and 28.

Data on one compound can be found in patent publication US9475773B2, “NK3 receptor antagonist compound (NK3RA) for use in a method for the treatment of polycystic ovary syndrome (PCOS)” (ASTRAZENECA AB, priority 2013, dated 2016).

`CC[C@H](NC(=O)c1c(NS(C)(=O)=O)c(-c2ccccc2)nc2ccccc12)c1ccccc1` [NK3RA, 3-(methanesulfonamido)-2-phenyl-N-[(1S)-1-phenylpropyl]quinoline-4-carboxamide]: the “effect on monophasic action potential” value with guinea pig heart is given as “without effect”. In the data set on rats, the cardiovascular effects result is “no cardiovascular effects”. Also, the “No Adverse Effect Dose Level for fetal minor abnormalities and variants” value with female rats (female rats) is listed as 1000 mg/kg/day. Further, the “estrus cycles, mating performance and fertility” value in the data set on female rats (rat, in vivo) is recorded as “Disturbed estrus cycles were seen with no adverse effects on mating performance or fertility”. For the same compound, in the data set with female rabbits, the “no adverse effect dose level for fetal observations” value was 50 mg/kg/day and the “no effect dose level for maternal toxicity” value is 25 mg/kg/day. Besides, the “LH: No. of patients Supportive” value in data set [1] (NK3RA arms pooled, LH AUC decreases on both days 7 and 28 AND MPP or number of pulses decrease) is given as 2. For the same compound, the “LH: No. of patients Consistent” value in data set [1] (NK3RA arms pooled, LH AUC decreases on both days 7 and 28 OR MPP or number of pulses decrease) stood at 3. Besides, in data set [1] (NK3RA arms pooled, LH AUC, MPP and number of pulses increase on day 7 or 28), the “LH: No. of patients Non-supportive” value was determined as 3. Moreover, in data set [1] (setting [2]), the “Free testosterone: No. of patients Supportive” value is given as 2 and the “Total Testosterone: No. of patients Supportive” value came out at 3. In addition, in data set [1] (setting [3]), the “Free testosterone: No. of patients Consistent” value was 4 and the “Total Testosterone: No. of patients Consistent” value worked out at 3. In data set [1] (setting [4]), the “Free testosterone: No. of patients Non-supportive” value worked out at 3 and the “Total Testosterone: No. of patients Non-supportive” value is 4.
